According to US10130590B2, “Methods of treating cancer with atovaquone-related compounds” (DANA-FARBER CANCER INSTITUTE, INC., priority 2013, dated 2018):

How the values were obtained:
STAT3 = assay: STAT3-luc reporter cells, IL-6 stimulated luciferase; assay type: cell-based
Procedure: Western blotting was performed as previously described (Battle T E, Arbiser J, & Frank D A (2005) The natural product honokiol induces caspase dependent apoptosis in B-cell chronic lymphocytic leukemia (B-CLL) cells. Blood 106(2):690-697). Antibodies to phospho-MAPK (9101), total MAPK (9102), phospho-Y705 STAT3 (9131), phospho-S6 (2215), total S6 (2217), phospho-4E-BP1 (9451), total 4E-BP1 (9644), total RSK (9355), phospho-S6K (9234, 85 used at 1:5000), total S6K (2708), phospho-eIF2α (9721, used at 1:1000), total eIF2α (5324), ATF4 (11815, used at 1:1000), PDGFRβ (3169), IGF1Rβ (9750), EGFR (2232), and HER2 (2242) were from Cell Signaling Technology. Phospho-RSK antibody was from R&D (AF889). Antibodies to total STAT3 (sc-482) and gp130 (sc-656, used at 1:1000) were from Santa Cruz Biotechnology. Phospho-S727 STAT3 antibody was described previously (229). REDD1 antibody was from Proteintech (10638-1-AP, used at 1:1000). Antibody recognizing full-length and cleaved ATF6 was from Abcam (ab122897, used at 1:1000). Antibodies to tubulin (T5168) and beta actin (A5316) were from Sigma. All antibodies were used at 1:10000 dilution for western blot unless otherwise noted. For immunoprecipitations, cells were lysed in 500 μl lysis buffer (0.5% NP-40, 150 mM NaCl, 50 mM Tris pH 7.5, with protease and phosphatase inhibitors freshly added at 1:100 [Pierce, PI78443]) on ice for 15 minutes, then centrifuged for 10 minutes at 14,000 RPM and 4° C. The supernatant was transferred to a new tube and incubated with 10 μl JAK2 antibody (Santa Cruz sc-278) or a mix of two TYK2 antibodies, 10 μl of each (Santa Cruz sc-5271 and Cell Signaling Technology 9312). Immunoprecipitation was performed overnight at 4° C. with rotation. The next day, 75 μl of protein A/G beads (Santa Cruz sc-2003) were washed twice in lysis buffer, then incubated with immunoprecipitates overnight as before. The next day, the beads were spun down (1 min. at 7,500 RPM and 4° C.) and washed 3 times with 650 μl lysis buffer for 10 minutes at 4° C. with rotation, then boiled in 50 μl sample buffer+10% β-mercaptoethanol. For Western blot, 20 μl were loaded per lane. For detection of phospho-tyrosine, a mixture of two pan-phospho-tyrosine antibodies (Cell Signaling Technology 9411 and 9416, 1:1000 of each) was used. Antibody to phospho-Y1007/1008 JAK2 was from Cell Signaling 86 Technology (3771, used at 1:1000). Antibody to phospho-Y570 JAK2 was from Millipore (09-241, used at 1:1000). Luminometric Assays Luciferase reporter cell lines were described previously (186). Firefly luciferase values were normalized by concurrent cell viability. Cell viability was measured as ATP-dependent luminescence by Cell Titer Glo (Promega).
To determine if atovaquone inhibits STAT3, it was tested in a cell-based reporter system of STAT3 transcriptional activity (Nelson E A, et al. (2008) Nifuroxazide inhibits survival of multiple myeloma cells by directly inhibiting STAT3. Blood 112(13):5095-5102). These cells lack basal STAT3 activation; upon IL-6 treatment, STAT3 becomes activated and drives transcription of a STAT3-dependent luciferase reporter gene. […] Activity of firefly luciferase was measured and normalized by cell viability (Cell Titer Glo). […]
STAT3-luc reporter cells were pre-treated with atovaquone, buparvaquone or TDBHN (concentration 10, 20, 30, or 40 μM) for 1 hour, then stimulated with IL-6 (10 ng/ml) for 5 hours. The activity of firefly luciferase was measured and normalized by cell viability (Cell Titer Glo).

gp130 mRNA = gp130 mRNA expression (qRT-PCR); assay type: cell-based; details: MEF, MDA-MB, SKBR3, U266; 25 μM, 12 hours
Procedure: Total RNA was reverse transcribed using random hexamers and assayed by qRT-PCR as previously described (see, Grivennikov S I, Greten F R, & Karin M (2010) Immunity, inflammation, and cancer. Cell 140(6):883-899).
MEF, MDA-MB-468, and SKBR3 cells were treated with atovaquone (25 μM) for 6 or 12 hours, then analyzed by Western blot for expression of gp130 and various other receptors. […] In contrast, levels of other receptors—such as PDGFR-β, EGFR, HER2, and IGF1R-β—were not affected, again indicating a specific effect on gp130. […] In summary, atovaquone rapidly induces specific loss of cell-surface gp130, while total gp130 declines secondarily due to protein degradation.

NF-κB = NF-κB cell-based reporter system
Procedure: To determine if atovaquone inhibits STAT3, it was tested in a cell-based reporter system of STAT3 transcriptional activity (Nelson E A, et al. (2008) Nifuroxazide inhibits survival of multiple myeloma cells by directly inhibiting STAT3. Blood 112(13):5095-5102). These cells lack basal STAT3 activation; upon IL-6 treatment, STAT3 becomes activated and drives transcription of a STAT3-dependent luciferase reporter gene. The STAT3-luc reporter cells were pre-treated with drug for 1 hour, then stimulated with IL-6 (10 ng/ml) for 5 hr. Activity of firefly luciferase was measured and normalized by cell viability (Cell Titer Glo). […] To determine if atovaquone inhibits STAT3 activity specifically over other transcription factors, it was tested in cell-based reporter systems for STAT1 and STAT5, two other STAT family members, and NF-κB, an unrelated transcription factor.

U266 cells = assay: Cell viability (Cell Titer Glo), U266; assay type: cell-based, human; details: 72 hours
Procedure: Western blotting was performed as previously described (Battle T E, Arbiser J, & Frank D A (2005) The natural product honokiol induces caspase dependent apoptosis in B-cell chronic lymphocytic leukemia (B-CLL) cells. Blood 106(2):690-697). Antibodies to phospho-MAPK (9101), total MAPK (9102), phospho-Y705 STAT3 (9131), phospho-S6 (2215), total S6 (2217), phospho-4E-BP1 (9451), total 4E-BP1 (9644), total RSK (9355), phospho-S6K (9234, 85 used at 1:5000), total S6K (2708), phospho-eIF2α (9721, used at 1:1000), total eIF2α (5324), ATF4 (11815, used at 1:1000), PDGFRβ (3169), IGF1Rβ (9750), EGFR (2232), and HER2 (2242) were from Cell Signaling Technology. Phospho-RSK antibody was from R&D (AF889). Antibodies to total STAT3 (sc-482) and gp130 (sc-656, used at 1:1000) were from Santa Cruz Biotechnology. Phospho-S727 STAT3 antibody was described previously (229). REDD1 antibody was from Proteintech (10638-1-AP, used at 1:1000). Antibody recognizing full-length and cleaved ATF6 was from Abcam (ab122897, used at 1:1000). Antibodies to tubulin (T5168) and beta actin (A5316) were from Sigma. All antibodies were used at 1:10000 dilution for western blot unless otherwise noted. […] Cell viability was measured as ATP-dependent luminescence by Cell Titer Glo (Promega). […]

gp130 = assay: Western blot of total gp130; assay type: cell-based
Procedure: Western blotting was performed as previously described (Battle T E, Arbiser J, & Frank D A (2005) The natural product honokiol induces caspase dependent apoptosis in B-cell chronic lymphocytic leukemia (B-CLL) cells. Blood 106(2):690-697). Antibodies to phospho-MAPK (9101), total MAPK (9102), phospho-Y705 STAT3 (9131), phospho-S6 (2215), total S6 (2217), phospho-4E-BP1 (9451), total 4E-BP1 (9644), total RSK (9355), phospho-S6K (9234, 85 used at 1:5000), total S6K (2708), phospho-eIF2α (9721, used at 1:1000), total eIF2α (5324), ATF4 (11815, used at 1:1000), PDGFRβ (3169), IGF1Rβ (9750), EGFR (2232), and HER2 (2242) were from Cell Signaling Technology. Phospho-RSK antibody was from R&D (AF889). Antibodies to total STAT3 (sc-482) and gp130 (sc-656, used at 1:1000) were from Santa Cruz Biotechnology. […] Cell viability was measured as ATP-dependent luminescence by Cell Titer Glo (Promega).
Since atovaquone reduced gp130 expression at the cell surface, it was asked whether this effect was accompanied by reduced total gp130 in the cell. To address this question, a time course of atovaquone treatment was performed and total cellular gp130 was measured by Western blotting in U266 cells treated with atovaquone at 20 μM. […]
MEF, MDA-MB-468, and SKBR3 cells were treated with atovaquone (25 μM) for 6 or 12 hours, then analyzed by Western blot for expression of gp130 and various other receptors. […]

Compound: O=C1C(O)=C([C@H]2CC[C@H](c3ccc(Cl)cc3)CC2)C(=O)c2ccccc21 [atovaquone, trans-2-[4-(4-chlorophenyl)cyclohexyl]-3-hydroxy-1,4-naphthalenedione]
- STAT-3 reporter gene expression (STAT3; 10, 20, 30, or 40 μM for 1 hour, then IL-6 (10 ng/ml) 5 hours, relative to controls): inhibited STAT-3 reporter gene expression
- luciferase induction by IL-6 (STAT3 transcriptional activity) (STAT3; pre-treated 1 hour, then IL-6 (10 ng/ml) 5 hr, normalized by cell viability): dose-dependent inhibition of luciferase induction by IL-6
- effect on STAT3 activity compared with STAT1, STAT5 and NF-κB (STAT3; reporter systems): much greater
- gp130 mRNA expression (gp130 mRNA): not significantly changed
- NF-κB transcription factor activity (NF-κB): modestly affected at the higher doses
- viability of U266 cells (U266 cells): killed
- total gp130 in other cell lines (gp130; MEF, SKBR3, MDA-MB-468, 25 μM, 6 or 12 hours): induced loss of total gp130 after prolonged treatment
- total cellular gp130, time course (gp130; U266, 20 μM): not reduced except at much longer time points
